# Like-named read-outs stand apart in the source and are kept apart here.
# Legend:
# [1] = system: cultured neurons and astrocytes; details: cited from earlier work
# [2] = system: MMP-9 (metalloproteinase-9); parameters: species or system C57BL/6J mice; details: mouse, in vivo
# [3] = system: intracerebral hemorrhage (“ICH”) mouse model; parameters: species or system C57BL/6J mice; details: in vivo
Substance,kill of cultured neurons and astrocytes [1],MMP9 serum levels [2],behavioral and neurological deficits following induction of ICH (overall) [3],circling behavior [3],sensory response component of 28-point scale [3],neurofunction (pilot studies) ([3]; 16 mg/kg),sensory response component of 28-point scale ([3]; 16 mg/kg),sensory response component of 28-point scale ([3]; 32 mg/kg)
Hemin,60%-70%,,,,,,,
PHGGGWGQPHGGGWGQ [SEQ ID NO:3],,diminished,efficacious at diminishing the behavioral and neurological deficits,exception,improved at statistically significant levels,improved neurofunction,improved at statistically significant levels,improved at statistically significant levels

# Reference: patent US11000571B2 (priority 2016, dated 2021)
